Data on 60 molecules can be found in the METLIN SMRT retention time set (Domingo-Almenara et al. 2019).

The structures appear in SMILES notation.

The series is described as follows: gradient 5% acetonitrile 3 min, to 50% in 2 min, to 85% in 15 min, held 3 min, 100 µL/min. The conditions noted are these: column: Zorbax Extend-C18 2.1 x 50 mm; eluents: water / acetonitrile, 0.1% formic acid. The essentials: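 Pure standards were analyzed in mixtures of ~100 molecules using HPLC coupled to a quadrupole time-of-flight mass spectrometer, in both positive and negative ionization mode. Separation used a Zorbax Extend-C18 column (2.1 × 50 mm, 1.8 μm) at 100 μL/min, with water and acetonitrile each containing 0.1% formic acid. Dead and dwell volumes were 40 μL and 900 μL, and data were collected over 3 months. Retention time was read from computationally picked adduct peaks, each inspected manually.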
Molecule `Cc1ccc(C)c(CNC(=O)c2cnc(-c3ccccc3)nc2-c2ccncc2)c1` had an RP-LC retention time of 913 s.

Regarding `CCOCCCNC(=O)Cn1cccc1-c1nc(-c2ccc(Cl)cc2)cs1`, the RP-LC retention time was determined as 1060 s.

`O=C(CCCS(=O)(=O)c1ccc(Cl)cc1)Nc1ccc([N+](=O)[O-])cc1` registered an RP-LC retention time of 695 s.

`COc1ccc(OC)c(NC(=O)CN2c3ccc(F)cc3-c3ccccc3S2(=O)=O)c1`: the RP-LC retention time came to 1010 s.

Consider `COc1ccccc1N1CCN(C(=O)C2CCN(c3cnc4nccnc4c3)CC2)CC1`, for which the RP-LC retention time amounted to 673 s.

Molecule `O=C(Nc1cccc(C(F)(F)F)c1)Nc1cnn(-c2ncc(N3CCCC3)cn2)c1` registered an RP-LC retention time of 921 s.

Molecule `O=c1ccc(-c2ccccc2)nn1CCc1nc(-c2ccc(Cl)cc2)no1` showed an RP-LC retention time of 1040 s.

`O=C(CSc1ncn[nH]1)c1ccc2c(c1)OCCO2` registered an RP-LC retention time of 626 s.

Molecule `Cc1noc(-c2cc(=O)n(CC(=O)NCc3cccs3)c3ccccc23)n1` had an RP-LC retention time of 795 s.

`COCCn1cc(CCNC(=O)Nc2ccc(Cl)cc2)c2cccnc21`: the RP-LC retention time came out at 760 s.

As to `Cc1ccnc(Nc2nc(-c3ccc(C)cc3C)cs2)c1`, the RP-LC retention time was found to be 859 s.

As to `CCOc1cccc(CNC(=O)C2CCc3nc(N4CCCCC4)ncc3C2)c1` (stereo not given), the RP-LC retention time is 777 s.

Molecule `Cn1c(=O)n(C)c2cc(CNCCc3ccc(S(N)(=O)=O)cc3)ccc21` had an RP-LC retention time of 538 s.

`Cc1ccccc1NC(=O)N1CCN(Cc2cn(C)c3ccccc23)CC1` had an RP-LC retention time of 589 s.

`CC(C(=O)NCC1CCCO1)N1C(=O)C2CCCCN2C(=O)c2ccccc21` (stereo not given) came in with an RP-LC retention time of 664 s.

Molecule `O=C(NC1CC1)c1ccc(OCC2CCN(C(=O)c3cc(F)ccc3Cl)CC2)cc1` registered an RP-LC retention time of 839 s.

With `O=C(NC1CCCCC1)c1cccc(Nc2c(-c3ccc(F)cc3)nc3cnccn23)c1`, the RP-LC retention time was 848 s.

For the molecule `Cc1ccc(NC(=O)C2CCN(S(=O)(=O)c3cc(-c4noc(C5CCC5)n4)cs3)CC2)cc1`, the RP-LC retention time was 1020 s.

Take `O=C1N(c2ccc(F)cc2)c2ncccc2S(=O)(=O)N1Cc1cccc(F)c1`: the RP-LC retention time worked out at 1030 s.

`Cc1ccc2c(=O)c(C(=O)Nc3cccc(F)c3)c[nH]c2n1`: the RP-LC retention time is 770 s.

`CCOC(=O)Cc1ccc(NC(=O)NC(C)C(=O)N2CCc3ccccc32)cc1` (stereo not given) returned an RP-LC retention time of 857 s.

Molecule `CCc1ccc(CNc2nc3ccccc3n2CCN(CC)CC)cc1` yielded an RP-LC retention time of 558 s.

Turning to `COC[C@@H]1CN(S(=O)(=O)c2cccc(F)c2)C[C@H]1c1ccncc1`, the RP-LC retention time was determined as 649 s.

`O=C(NC1CCCCC1)C1CCCN(c2nnc3ccc(Cl)cn23)C1` (stereo not given) showed an RP-LC retention time of 778 s.

The molecule `Cc1ccnc(NC(=O)C2CCN(S(=O)(=O)c3cc(-c4noc(C5CC5)n4)ccc3C)CC2)c1` came in with an RP-LC retention time of 811 s.

With `COc1ccc2c(c1)c(CN1CCC(C(=O)NCCCN3CCc4ccccc4C3)CC1)cn2C`, the RP-LC retention time was 565 s.

The molecule `Cc1cccc(C(=O)Nc2cc(-c3cccs3)no2)c1` showed an RP-LC retention time of 1000 s.

As for `O=C(NCc1ccc2c(c1)OCO2)C1CN(c2nc3c(F)cccc3s2)C1`, the RP-LC retention time worked out at 776 s.

`C=Cc1ccc(CN2C(=O)CCC2c2nc(C)no2)cc1` (stereo not given) yielded an RP-LC retention time of 731 s.

`CCOC(=O)CC(=O)N1CCSC1COc1ccccc1OC` (stereo not given) came in with an RP-LC retention time of 903 s.

Molecule `COc1cccc(-c2noc(C3CCCN3C(=O)Nc3cccc(C)c3C)n2)c1` (stereo not given) showed an RP-LC retention time of 925 s.

In turn, `Cc1csc(NC(=O)c2cn(Cc3cccc(F)c3)nc2OCc2cccc(F)c2)n1` yielded an RP-LC retention time of 1080 s.

`Cc1cccc(S(=O)(=O)N2CCC(c3nc(C(=O)N4CCCC4)c(C)o3)CC2)c1` yielded an RP-LC retention time of 902 s.

`CC(C)n1c(=O)oc2cc(-c3noc(COc4ccc(Cl)cc4)n3)ccc21` displayed an RP-LC retention time of 1170 s.

`O=C(O)c1nnn(-c2ccccc2)c1-c1ccccn1`: the RP-LC retention time amounted to 657 s.

In the case of `O=C(NCCn1nc(-c2ccco2)ccc1=O)c1ccc2ncsc2c1`, the RP-LC retention time came to 610 s.

Take `Cc1ccc(Cn2nc3n(c2=O)CCCC3)cc1`: the RP-LC retention time is 702 s.

Turning to `Cc1ccc2nc(C(=O)NCc3ccccc3C)cn2c1`, the RP-LC retention time is 686 s.

Molecule `CCOc1ccc(S(=O)(=O)NC2CC(=O)N(C3CC3)C2)cc1` (stereo not given) registered an RP-LC retention time of 652 s.

Turning to `COc1cccc(-c2nnc(Cc3nc(-c4cccs4)no3)o2)c1`, the RP-LC retention time amounted to 929 s.

`COCCNC(=O)C1CCC(=O)N(c2ccc(OC)cc2)C1c1ccc(F)cc1` (stereo not given) came in with an RP-LC retention time of 658 s.

Molecule `O=C(Cn1ccc2ccc(N3CCOCC3)nc21)N1CCN(c2ccccn2)CC1` registered an RP-LC retention time of 616 s.

In turn, `COc1cccc(NC(=O)c2sc(-c3cn(C)c4ncccc34)nc2C)c1` came in with an RP-LC retention time of 927 s.

Consider `CCOc1ccc(NC(=O)c2cnc(N3CCN(C4CCCCC4)CC3)nc2N)cc1`, for which the RP-LC retention time is 662 s.

With `COc1ccc(CCNC(=O)c2c(N3CCCC3=O)c3cc(OC)ccc3n2C)c(OC)c1`, the RP-LC retention time was determined as 877 s.

`CC(C)c1ccccc1OCC(=O)Nc1cnn(C)c(=O)c1N1CCOCC1` registered an RP-LC retention time of 955 s.

Turning to `Cn1cccc(C(=O)Nc2ccc(N3CCCS3(=O)=O)cc2)c1=O`, the RP-LC retention time was determined as 644 s.

In the case of `N#CCCSc1ccccc1NC(=O)c1ccc(C(=O)c2ccccc2)cc1`, the RP-LC retention time stood at 924 s.

`CS(=O)(=O)Nc1ccc2c(c1)C(=O)Nc1cc(Cl)ccc1O2` yielded an RP-LC retention time of 738 s.

`Cc1ccc(CN2CCN(C3CCN(S(=O)(=O)c4cccc(C)c4)CC3)C(=O)C2=O)cc1`: the RP-LC retention time was 873 s.

On to `CN1CC2(CCN(C(=O)NC3CCCCC3)CC2)CC1C(=O)N1CCOCC1` (stereo not given), for which the RP-LC retention time turned out to be 595 s.

Regarding `CCc1nc2cccnc2n1CCN1CCN(C(=O)Nc2ccc3c(c2)OCO3)CC1`, the RP-LC retention time was found to be 579 s.

Molecule `Cc1cccc(NC(=O)C2CCCN(c3ncnc4c3nc3n4CCCCC3)C2)n1` (stereo not given) displayed an RP-LC retention time of 730 s.

For `CCc1nn2c(CNS(=O)(=O)c3ccccc3CC)c(-c3ccccc3)nc2s1`, the RP-LC retention time came out at 1020 s.

Turning to `COc1ccc(CCO[C@@H]2CCCC[C@H]2N2CC[C@@H](O)C2)cc1OC`, the RP-LC retention time stood at 684 s.

`O=C(Cn1cnc(-c2cccs2)cc1=O)Nc1ccc(-n2cnnn2)cc1` registered an RP-LC retention time of 660 s.

In turn, `Cc1cc2nn(CC(=O)Nc3ccc(F)cc3Cl)c(=O)n2c(-c2ccccc2)n1` yielded an RP-LC retention time of 761 s.

In the case of `Cc1cccc(CNC(=O)C2(C)Cn3cnc(C(=O)N4CCOCC4)c3C(=O)N2C2CC2)c1` (stereo not given), the RP-LC retention time worked out at 618 s.

As for `COc1ccc(Nc2c(-c3ccc(Cl)cc3)nc3ncccn23)cc1OC`, the RP-LC retention time worked out at 748 s.

The molecule `COc1ccc(OCc2nc(-c3ccc4oc(C)nc4c3)no2)cc1` showed an RP-LC retention time of 984 s.
